# In patent US8110654B2, “T cell epitope peptides of ovarian cancer anti-idiotypic antibody 6B11 and use thereof” (Peking University People;s Hospital, priority 2006, dated 2012):
# Key:
# [1] = molecular target: HLA-A2 (Homo sapiens, UniProt P04439, D140Y/D185E/D98H/E176V/E277Q/G131W/G231S/I119V/I121R/I166T/I218V/L300P/L318F/N151K/N90K/P208A/P217A/Q86G/Q94H/R138H/R169H/T345S); test: T2 cell binding assay (HLA class I expression on T2 cells, confocal microscopy); format: cell-based; conditions: for binding capacity in T2 cell binding assay (in words): T2 cells co-incubated with peptide 24 hours; for T2 binding: T2 cells co-incubated with peptide (0.3, 3, 30 μg/ml) 24 hours, HLA class I surface expression; on T2 binding: key: +++: high binding capacity; ++: moderate binding capacity; +: low binding capacity
# Description: The peptides obtained by […] method and the VH CDR1 and VL CDR2 region peptides were subject to T2 cell binding assay. T2 cells were co-incubated with each peptides in different concentrations (0.3 μg/ml, 3 μg/ml and 30 μg/ml) for 24 hours and then co-incubated with anti-human MHC class I antibodies. The expression profile of HLA class I molecules on the surface of T2 cells was analyzed by confocal microscopy. […] They were synthesized together with the CDR peptides of the anti-idiotype antibody for screening CTL epitope peptides.
# [2] = system: anti-idiotype antibody 6B11-CTLs (reacting cells); test: BrdU ELISA cell proliferation assay, 6B11-CTLs stimulated by loaded DCs; format: cell-based, human
# Description: Peripheral blood was drawn from HLA-A2 healthy human subjects. After EDTA anti-coagulation treatment, peripheral blood monocytes were isolated using Ficoll lymphocyte isolation 1×10^7 monocytes/well and AIM-V culture medium (containing 5% human AB serum) was added to 1 ml. The cells were incubated at 37° C. under 5% CO2 for 2 hours. Non-adherent cells were drawn and removed as lymphocytes and stored in liquid nitrogen for further use. The adherent cells were monocytes.
# The monocytes isolated from said 6-well plates were added with 2 ml AIM-V culture medium (containing 5% human AB serum)/well. Recombinant human granulocyte-macrophage colony-stimulating factor (rh GM-CSF) and recombinant human interleukin-4 (rh IL-4) were added simultaneously both to a final concentration of 1000 U/ml, for induced incubation. On Day 4, 1 ml AIM-V culture medium (containing 5% human AB serum) was supplemented, and rh GM-CSF and rh IL-4 of the same concentration as mentioned above were also supplemented. On Day 6, 1 ml AIM-V culture medium (containing 5% human AB serum) was supplemented again. At the same time, recombinant human tumor necrosis factor-α (rh TNF-α), recombinant human α-interferon (rh IFN-α) and recombinant human interleukin-6 (rh IL-6) were added, all to a final concentration of 1000 U/ml, and prostaglandin E2 (PGE2) was added to a final concentration of 1 μg/ml. Co-incubation lasted 24 hours for inducing mature DCs.
# On Day 4 during incubation of DCs, the culture medium, rh GM-CSF and rh IL-4 were supplemented. At the same time, anti-idiotype antibody 6B11 was added to a final concentration of 40 μg/ml for loading. The loaded cells were stored as stimulating cells for further use.
# Mature DCs induced were harvested, washed and adjusted to a concentration of 1×10^6 cells/ml. Six CDR peptides (SEQ ID NOs: 1-6, see Table 1, artificially synthesized) in a final concentration of 30 μg/ml respectively, or each peptide of 30 μg/ml together with keyhole limpet hemocyanin (KLH) of 5 μg/ml were added for loading. The loaded cells were stored as stimulating cells for further use.
# The freeze-stored autologous lymphocytes were stimulated by DCs loaded with anti-idiotype antibody 6B11 (anti-Id DCs), to obtain CTLs specific to anti-idiotype antibody 6B11 (6B11-CTLs). One period consists of 7 days. On Day 3 of every period, 10 U/ml recombinant human interleukin-2 (rh IL-2) was supplemented. Finally, anti-idiotype antibody 6B11-CTLs were obtained after a one- or three-period stimulation.
# All the CDR peptides of anti-idiotype antibody 6B11 (6 peptides) were synthesized artificially. The peptides were screened for Th epitope peptides by cell proliferation assay. Anti-idiotype antibody 6B11-CTLs stimulated for one period were used as reacting cells. DCs loaded with anti-idiotype antibodies and peptides respectively were used as stimulating cells. The reacting cells and the stimulating cells (in the ratio of 10:1) were co-incubated at 37° C. under 5% CO2 for 120 hours and then subject to BrdU ELISA cell proliferation assay. Each well contained 100 μl AIM-V culture medium and 1×10^5 anti-idiotype antibody 6B11-CTLs. Within the last 2 hours during stimulation, 10 μl BrdU labeling solution was added into each well and the fluid in the wells was removed. The cells were dried at 60° C. for 1 hour. 200 μl of FixDenat solution was added into each well. The reaction continued for 30 minutes at 37° C. for fixing DNA in the lymphocytes. Finally, 100 μl BrdU monoclonal antibody was added into each well for 90 minutes. The absorption value at 450 nm was read by an automatic microplate reader after substrate chromogenic reaction for detecting the proliferation of the cells. The group of DCs without loading and the group of phytohaemagglutinin (PHA) were used as negative and positive control respectively. […] Other peptides could not stimulate the proliferation of the reacting cells. […]
# [3] = system: CD4 T cells; test: BrdU cell proliferation assay after magnetic bead sorting of CD4 T cells; format: cell-based, human; conditions: reacting cells sorted for CD4 T cells by magnetic beads
# Description: All the CDR peptides of anti-idiotype antibody 6B11 (6 peptides) were synthesized artificially. The peptides were screened for Th epitope peptides by cell proliferation assay. Anti-idiotype antibody 6B11-CTLs stimulated for one period were used as reacting cells. DCs loaded with anti-idiotype antibodies and peptides respectively were used as stimulating cells. The reacting cells and the stimulating cells (in the ratio of 10:1) were co-incubated at 37° C. under 5% CO2 for 120 hours and then subject to BrdU ELISA cell proliferation assay. Each well contained 100 μl AIM-V culture medium and 1×10^5 anti-idiotype antibody 6B11-CTLs. Within the last 2 hours during stimulation, 10 μl BrdU labeling solution was added into each well and the fluid in the wells was removed. The cells were dried at 60° C. for 1 hour. 200 μl of FixDenat solution was added into each well. The reaction continued for 30 minutes at 37° C. for fixing DNA in the lymphocytes. Finally, 100 μl BrdU monoclonal antibody was added into each well for 90 minutes. The absorption value at 450 nm was read by an automatic microplate reader after substrate chromogenic reaction for detecting the proliferation of the cells. The group of DCs without loading and the group of phytohaemagglutinin (PHA) were used as negative and positive control respectively. […] Other peptides could not stimulate the proliferation of the reacting cells.
# For further analyzing the proliferation of the cells, stimulating cells were blocked by anti-human MHC class II antibodies, for evaluating the effect of Th epitope peptides. Firstly, the optimal application concentration of MHC class II antibodies was determined by experiments to be 1:20 dilution (FIG. 3). […] Other peptides could not trigger cell proliferation, no matter whether MHC class II antibodies were applied or not (FIG. 4). […] The reacting cells were subject to magnetic bead sorting of CD4 T cells.
binding capacity in T2 cell binding assay (in words) [1],T2 binding [1],Substance,proliferation after blocking by MHC class II antibodies ([2]; anti-human MHC class II antibodies 1:20 dilution),"proliferation of reacting cells 6B11-CTLs ([2]; stimulating DCs loaded with peptide 30 μg/ml or 6B11 40 μg/ml, 120 hours, BrdU, A450)",proliferation of sorted CD4 T cells [3]
low binding capacity,+,IALITTKIA [predicted 9-mer from VH CDR3],–,–,–
low binding capacity,+,LITTKIAWY [predicted 9-mer from VH CDR3],–,–,–
high binding capacity,+++,NNKYYNTAL [predicted 9-mer from VH CDR2],–,–,–
low binding capacity,+,VHSNGNTYL [predicted 9-mer from VL CDR1],–,–,–
–,–,"phytohaemagglutinin [PHA, reference compound]",blocked dramatically,significant proliferation,could trigger the proliferation
